# How the values were obtained:
# [1] = Cytotoxicity, CellTiter-Glo cell viability assay in HFF cells; settings: human, human foreskin fibroblast (HFF) cell monolayers
# Method: Human foreskin tissue was obtained from the University of Alabama at Birmingham tissue procurement facility with approval from the Institutional Review Board. The tissue was stored at 4° C. in cell culture medium consisting of minimum essential media (MEM) with Earle's salts supplemented with 10% fetal bovine serum (FBS; HyClone, Inc., Logan, Utah) and standard concentration of L-glutamine, amphotericin B (Fungizone), and vancomycin. The tissue was then placed in a phosphate-buffered saline solution, minced, and rinsed to remove the red blood cells. Tissue fragments were then resuspended in a trypsin-EDTA solution and incubated at 37° C. to disperse the cells, which were then collected by centrifugation. Cell pellets were then resuspended in 4 ml culture medium, placed in a 25-cm^2 tissue culture flask, and incubated at 37° C. for 24 h. The culture medium was then replaced with fresh medium and condition of the cells was monitored daily until a confluent cell monolayer was formed. The HFF cells were then expanded through serial passages in standard growth medium of MEM with Earle's salts supplemented with 10% FBS, L-glutamine, penicillin, and gentamicin. Each lot of cells was confirmed to be free of mycoplasma infection and routinely passaged or used for assays at or before passage 10.
# Antiviral and cytotoxicity data were obtained in a series of three to five separate experiments for each virus to provide an accurate estimate of antiviral activity and statistical data. Each assay included positive and negative control compounds as well as infected and uninfected controls to ensure the integrity of the experiment.
# The CPE reduction assays were performed in monolayers of human foreskin fibroblast (HFF) cells (5000/well) in 384-well plates in assay media consisting of MEM with Earle's salts, 2% FBS and standard concentrations of L-glutamine, penicillin and gentamycin. 5000 cells were seeded in 384-well microtiter plates and incubated at 37° C. in a humidified 5% CO2 incubator for 24 hours to allow for formation of confluent monolayers.
# Cell monolayers were infected at a multiplicity of infection (MOI) of approximately 0.005 PFU/cell with virus strains including AdV5. […] Cytopathology was determined by the addition of CellTiter-Glo® reagent (Promega, Madison, Wis.). Concentrations of antiviral test compounds sufficient to reduce CPE by 50% (EC50) were interpolated from the experimental data using standard methods in Microsoft® Excel.
# [2] = system: adenovirus; assay: Dose-dependent inhibition of adenovirus infection (summary statement); type: cell-based; settings: unidentified adenovirus
# [3] = Pharmacokinetics of filociclovir in immunosuppressed hamsters; type: in vivo, Syrian hamsters; settings: 6 hours after administration
# Method: In order to test the pharmacokinetics of filociclovir, we use a Syrian male hamster model of adenovirus infection. Syrian hamsters were given either an oral (p.o. 50 mg/kg) or intravenous (i.v. 10 mg/kg) dose of filociclovir. […] For i.v. administration, filociclovir was dissolved in DMSO (Sigma D2650) and then diluted with water to a final concentration of 5 mg/ml for filociclovir and 75% DMSO. The dosing solutions were prepared one day before use and stored at 4° C. Male Syrian hamsters were purchased from Envigo (Hackensack, N.J.) at ˜100 g body weight. […] The animals received three injections of CP before the administration of filociclovir. Two groups of animals (12 hamsters/group) were used for the two routes of administrations. In addition, three untreated animals (the same three hamsters for both routes) served as mock controls. The p.o. and i.v. experiments were performed on two consecutive days. As the hamsters weighed approximately 100 g, (+/−10%), they were administered 1 ml and 0.2 ml for the p.o. and i.v. routes, respectively, to achieve the desired dose. For both routes, 3 hamsters were sacrificed at 0.5, 1, 3, and 6 hr post dosing. […]
# [4] = system: adenovirus 6 (AdV6); assay: Neutral red survival assay, AdV6-infected A549 cells; type: cell-based, human adenovirus; settings: FIG. 2, A549 cells, 6 days post-infection
# Text: The neutral red cell cytotoxicity assay was used to detect cell viability or drug cytotoxicity. The principle of this assay is based on the detection of viable cells via the uptake of the dye neutral red. Neutral red is a eurhodin dye that stains lysosomes in viable cells. Viable cells can take up neutral red via active transport and incorporate the dye into their lysosomes, but non-viable cells are unable not take up this chromophore. Consequently, after washing, viable cells can release the incorporated dye under acidified-extracted conditions. The amount of released dye can be quantified and used to determine the total number of viable cells or drug cytotoxicity. As such, cytotoxicity is expressed as a concentration-dependent reduction of the uptake of neutral red after exposure to the compound under investigation.
# The neutral red survival assays were carried out in a 96-well format. Briefly, A549 adenocarcinomic human alveolar basal epithelial cells were plated at a concentration of 6×10^3 cells per well one day prior to infection. AdV6 infections were carried out at 5×10^3 PFU per well (an estimated 0.5 PFU/cell at the time of infection). […] Filociclovir plates were read and the results were graphed using GraphPad Prism graphing and statistical software (GraphPad Software, San Diego, Calif.).
structure (smiles),measurement,setting,value
"Nc1nc2c(ncn2/C=C2/CC2(CO)CO)c(=O)[nH]1 [FCV, 2-amino-9-{(Z)-[2,2-bis(hydroxymethyl)cyclopropylidene]methyl}-3,9-dihydro-6H-purin-6-one]",CC50,"[1]; CC50, AdV6 line of Table 2, unit inferred",> 100 µM
same,CC50,"[1]; CC50, AdV7 line of Table 2, unit inferred",> 150 µM
same,CC50,"[1]; CC50, AdV8 line of Table 2, unit inferred",> 150 µM
same,CC50,"[1]; CC50, HFF cells, run with AdV5 assay, average and SD from five independent experiments",95 ± 10.6 µM
same,CC50,"[1]; mammalian cytotoxicity (CC50), summary statement, 'preferably'",100 to 150 µM
same,IC50,[2],≤ 5 µM
same,detectability after administration,[3]; i.v. 10 mg/kg,still detectable
same,detectability after administration,[3]; p.o. 50 mg/kg,still detectable
same,concentration as low as which is effective to improve viability of AdV6 infected cells,[4],10^−1 μM

# From patent US20220168310A1, “INHIBITION OF ADENOVIRUS WITH FILOCICLOVIR” (Microbiotix, Inc., priority 2019, published 2022)
